Reference: US20230087766A1, “METHODS OF REACTIVATING LATENT HUMAN IMMUNODEFICIENCY VIRUS AND RELATED COMPOSITIONS” (priority 2017, published 2023)

Legend:
[1] = tested on: HIV LTR in J-Lat A1 cells; experiment: Chromatin immunoprecipitation (ChIP) at the HIV LTR; format: cell-based; settings: J-Lat A1 cells, 30 mM Na-Cro for 4 hours
Description: FIG. 2 is a series of images and graphs showing that histone crotonylation by sodium crotonate addition re-programs histone tails at the HIV LTR. Panel A illustrates that Na-Cro addition increased global expression of H3K4Cro, H3K4Ac, and H3K18Ac while decreasing H3K27Me3. Panel B illustrates expression of transcription factors after Na-Cro addition in J-Lat Al cells. Panels C-E illustrate that Na-Cro addition re-programmed histone tails at the HIV LTR. Chromatin immunoprecipitation (ChIP) assay was performed by using anti-H3K4Cr, anti-H3K4Ac, and anti-H3K27Me3 antibodies after J-Lat Al cells were treated with 30 mM Na-Cro for 4 hours. PCR primers were specific for the HIV LTR region.
FIG. 7 is a series of graphs showing that induction of de-crotonylation of histone tail at HIV LTR is independent of SIRTs. Panel A illustrates that J-Lat Al cells were pre-treated with either 50 μM RSV or 1 mM NAM, followed by 30 mM Na-Cro addition to reactivate latent HIV expression. Untreated controls were compared with positive controls involving individual treatment of Na-Cro, RSV, or NAM. *, p<0.05; **, p<0.01 compared with control treatment. #, p<0.05 compared with Na-Cro treatment. Panel B illustrates that gene expression of sirt1 or sirt3 was measured by RT-qPCR in J-Lat Al cells treated with either 25 μM RSV, 50 μM RSV, or 1 mM NAM. *, p<0.05 and **, p<0.01 compared with control treatment. Panels C and D illustrate that histone crotonylation induces binding of SIRT3 and SIRT1 at the HIV LTR. J-Lat Al cells were treated with 30 mM Na-Cro for 4 hours and analyzed by ChIP assays using anti-SIRT1 or anti-SIRT3 antibodies. *, p<0.05 compared with control treatment.
Chromatin Immunoprecipitation (ChIP): J-Lat Al cells (2.5 to 5 million) were utilized in ChIP assays with anti-H3K18Ac, anti-H3K4Cr, anti-H3K27Me3, anti-H3K4Ac, anti-SIRT3 (CELL SIGNALING TECHNOLOGY®), and anti-SIRT1 (CELL SIGNALING TECHNOLOGY®) antibodies. ChIP assays were performed using […]® Kit from CELL SIGNALING TECHNOLOGY® as per the manufacturer's recommendations. Samples were cross-linked using formaldehyde and 150-1000 bp fragments were made using Micrococcal Nuclease digestion and 7 cycles of 30 seconds on/30 seconds off sonication. Antibodies were used to probe respective proteins. Purification of DNA was performed using the […]® Kit Protocol. Purified ChIP DNA was used in SYBR® Green qPCR using ChIP primers specific for HIV LTR.

latent HIV in U1 cells = experiment: Reactivation of latent HIV in U1 cells by RT-qPCR; format: cell-based; settings: Na-Cro at 40 mM
Protocol: Cell culture: J-Lat Al cells (derived from Jurkat cells harboring HIV LTR-Tat-GFP gene) and U1 cells (promonocytic cell line harboring one copy of HIV genome with defective tat gene) were obtained from NIH AIDS Reagent Program and cultured at 37° C. with 5% CO2 in RPM11640 medium containing 10% FBS and 1% penicillin-streptomycin as previously described (see G. Jiang, et al. PLoS Pathogens 11, e1005066 (2015)).
For inhibiting ACSS2 and crotonylation, cells were pretreated with ACSS2 inhibitor, AR12 (SELLECK CHEMICALS™, Houston, Tex.), for 30 minutes, followed by Na-Cro treatment for 4 or 18 hours.
Real-Time PCR Analysis: HIV gene expression was measured using real-time PCR in J-Lat Al cells treated with LRAs. Total nucleic acid was extracted using RNEASY™ Kit, genomic DNA digested using DNase I and total RNA reverse transcribed using Superscript III to synthesize cDNA. […] […] TAMRA-3′ (SEQ ID NO:3).

C/C=C/C(=O)[O-].[Na+] [Na-Cro, sodium crotonate]
acetylation at H3K4 at the HIV LTR [1]: increased | binding of SIRT1 at the HIV LTR [1]: efficiently bound to the HIV LTR at higher levels than controls | binding of SIRT3 at the HIV LTR [1]: efficiently bound to the HIV LTR at higher levels than controls | crotonylation at H3K4 at the HIV LTR [1]: increased | histone tri-methylation at H3K27 at the HIV LTR [1]: decreased | increase in viral transcription compared to untreated controls (latent HIV in U1 cells): 6 fold
